These results are taken from PMC12373846, “Hemoglobin as a pseudoperoxidase and drug target for oxidative stress-related diseases” (Signal Transduction and Targeted Therapy, 2025).

For one data set, the target named is T1, HRP (Armoracia rusticana, UniProt P00433).
T1 sequence (P00433 31-353): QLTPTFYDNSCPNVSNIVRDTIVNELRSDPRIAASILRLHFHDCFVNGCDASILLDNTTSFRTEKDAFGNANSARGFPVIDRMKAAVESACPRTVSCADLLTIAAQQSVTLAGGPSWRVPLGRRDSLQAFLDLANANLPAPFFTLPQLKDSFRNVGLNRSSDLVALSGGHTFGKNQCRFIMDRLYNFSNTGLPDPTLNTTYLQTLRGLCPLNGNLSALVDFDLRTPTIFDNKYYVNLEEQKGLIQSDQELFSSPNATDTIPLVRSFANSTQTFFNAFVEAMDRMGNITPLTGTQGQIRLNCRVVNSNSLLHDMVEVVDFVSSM
The experiment in a line: H2O2 assay with HRP (HRP-EC50). The data set is classed as biochemical, horseradish. On the procedure: (§1) Hb (Sigma‒Aldrich, H7379), H2O2 (Sigma‒Aldrich, H1009), and Amplex Red reagents (Invitrogen, A12222) were obtained for the study. A 4 μM H2O2 solution was prepared in 50 mM sodium phosphate buffer (pH 7.2). Then, 49 μl of this mixture was mixed with 1 μl of the test compound in DMSO or distilled water. The mixture was combined with an assay mixture of Amplex Red reagent (20 mM stock to 0.1 mM) and HRP (200 U/ml stock to 0.2 U/ml) and added to the wells at 50 μl/well. After a 60-min incubation at 37 °C, resorufin production was quantified via a microplate fluorescence reader (SpectraMax iD5, Molecular Devices) at ex/em = 535/580 nm. The H2O2-decomposing activity was estimated via the following equation: (sample fluorescence-blank fluorescence)/(control absorbance-blank fluorescence) × 100. For the ROS-Glo assay, the H2O2 substrate solution and ROS-Glo detection solution were prepared according to the manufacturer’s instructions. 10 μM H2O2 and drugs were prepared as in the Amplex Red assay, with HRP, Hb, CAT, or GPx added as needed. The mixture was added to the wells at 100 μl/well and incubated for 60 min at 37 °C. H2O2 substrate solution was added, and the mixture was incubated at room temperature for 30 min. After the H2O2 substrate solution was added and incubated at room temperature for 30 min, the ROS-Glo detection solution was added, and the mixture was incubated for 15 min. Luminescence was measured via iD5 microplate readers. The H2O2-decomposing activity was estimated via the following equation: (sample luminescence-blank luminescence)/(control luminescence-blank luminescence) × 100. The U/ml was calculated on the basis of the amount of H2O2 reduced by Hb during the reaction, using μg/ml and U/mg.

The target of the next data set is T2, Hb (Homo sapiens, UniProt P68871).
T2 construct: purchased Sigma-Aldrich H7379
The experiment in a line: ROS-Glo H2O2 assay with Hb. The data set is classed as biochemical. As to the method: as §1, with “The H2O2-decomposing activity was estimated via the following equation: (sample fluorescence-blank fluorescence)/(control absorbance-blank fluorescence) × 100.” left out, “The H2O2-decomposing activity was estimated via the following equation: (sample luminescence-blank luminescence)/(control luminescence-blank luminescence) × 100.” left out
To evaluate the extent of peroxidase function facilitation by HTPEB (1 μM) and KDS12025 (1 μM) in HRP (0.2 U/ml) and Hb (10 μg/ml), we used the ROS-Glo assay over 30 and 60 min. The fold change was calculated by dividing the delta values during the 30-min reaction for the vehicle over drug conditions.
To assess enzyme activity, the amount of H2O2 consumed over a specific time was quantified alongside a standard curve. For the peroxidase function of Hb, Hb was administered at doses ranging from 0.01 to 112 U/ml and preincubated with H2O2 and either DMSO, HTPEB (1 μM), or KDS12025 (1 μM) at 37 °C for 30 min. The remaining H2O2 was measured via the ROS-Glo assay and normalized against conditions without Hb. The dose‒response curve, EC50, and EC20 for H2O2 decomposition were calculated and determined by fitting the data with GraphPad Prism software. The fitting method had no special handling of outliers, and least squares regression with confidence intervals of the parameters was 95%.

In data set [1] the test system is primary cultured hippocampal astrocytes. Description: oROS-G intracellular H2O2 imaging. The data set is classed as cell-based, mouse. Conditions: Fig. 3j. On the procedure: Primary hippocampal astrocytes were obtained from postnatal day 0‒2 (P0‒2) C57BL/6 mice as previously described.[73] The hippocampal tissue was dissected free of meninges, minced, and dissociated into a single-cell suspension by trituration. The cells were grown in Dulbecco’s modified Eagle’s medium supplemented with D-glucose (4500 mg/L), L-glutamine, sodium pyruvate (110 mg/L), 10% heat-inactivated horse serum, 10% heat-inactivated fetal bovine serum, and 1000 U/ml penicillin‒streptomycin. The cells were maintained at 37 °C in a humidified atmosphere containing 5% CO2.
H2O2 specific, highly sensitive, and fast on-and-off kinetics, a genetically encoded oROS-G plasmid kindly provided by Dr. Andre Berndt. oROS-G was cloned under the GFAP104 promoter and delivered into primary cultured hippocampal astrocytes via the NeoN^TM transfection system (Invitrogen). The cells were treated with various concentrations of Aβ (1 to 10 μM) or 6-OHDA (Tocris, 2547; 10 to 50 μM) to induce aberrant H2O2. For subsequent experiments, 5 μM Aβ and 30 μM 6-OHDA were selected on the basis of initial dose‒response studies. KDS12025 (10 μM) and sodium pyruvate (1 mM) were applied as indicated in each experiment. For live-cell imaging, astrocytes were maintained in a humidified chamber at 37 °C with 5% […] during imaging to preserve physiological conditions. Changes in the fluorescence of oROS-G were recorded via an A1 Nikon confocal microscope equipped with a temperature- and humidity-controlled stage. Images were captured every 20 min for up to 40 h (20for the 6-OHDA experiments) via the NIS-Elements software (Nikon, Japan) for time-lapse imaging. The excitation and emission wavelengths for oROS-G fluorescence were set to 485 nm and 538 nm, respectively. Endpoint fluorescence measurements were also collected for KDS12025 dose-dependent experiments. To analyze the fluorescence intensity, individual regions of interest (ROIs) were manually selected for each astrocyte via NIS-Elements software (Nikon, Japan). The fluorescence intensity changes were normalized to the baseline values (ΔF/F0) to quantify the H2O2 dynamics. To determine the EC50 of KDS12025, endpoint fluorescence intensity data from oROS-G experiments were normalized to those of the Aβ+vehicle control group. The normalized data were analyzed via GraphPad Prism software to fit a four-parameter logistic curve, yielding the EC50 value for the H2O2-decomposing activity of KDS12025.

A further data set is described as follows: PAMPA BBB permeability. To be noted: for BCS code: CNS +/- classification: 50 μM, 4 h; for Papp at 4 h, 50 μM: PAMPA, pH 7.4, 50 μM. The data set is classed as in vitro ADME. As to the method: A parallel artificial membrane permeability assay (PAMPA)^70 was performed to validate the blood-brain barrier permeability of KDS12025. The procedure began by preparing a donor solution of the compound in a pH 7.4 donor buffer. This solution was added to the wells of a deep well plate, followed by the addition of a high-sensitivity UV plate filled with donor buffer to serve as the blank sample. An initial sample for the UV plate was taken to establish a baseline reading. The PAMPA sandwich was then assembled by adding the donor plate mixture to the donor plate well, followed by placing a BBB-lipid coated membrane on top and an acceptor plate filled with acceptor buffer. This setup was incubated at 25 °C for a specific duration to allow diffusion. Post-incubation, a sample from the acceptor plate was taken, and the UV absorbance was measured to determine the permeated amount of the test compound. The permeability was then calculated using the PAMPA explorer program, considering the initial donor concentration and the acceptor's concentration after incubation.

Setting [2] is: Tables S2, S3, read-out: HRP-EC50.
[3] abbreviates: Tables S2, S3, read-out: HB-EC50.
Setting [4] is: read-out: BCS code: permeability classification.

Structures can show the parent of a compound that is named as a salt. Where two headings read alike, the source gives them in different places.

T2 sequence (P68871 2-147 limits assumed): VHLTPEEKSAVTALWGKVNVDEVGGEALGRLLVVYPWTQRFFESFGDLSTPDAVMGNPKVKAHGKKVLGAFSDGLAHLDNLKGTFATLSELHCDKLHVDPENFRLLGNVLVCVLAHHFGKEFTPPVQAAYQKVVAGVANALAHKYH
T2 sequence (P69905 2-142 partner limits assumed): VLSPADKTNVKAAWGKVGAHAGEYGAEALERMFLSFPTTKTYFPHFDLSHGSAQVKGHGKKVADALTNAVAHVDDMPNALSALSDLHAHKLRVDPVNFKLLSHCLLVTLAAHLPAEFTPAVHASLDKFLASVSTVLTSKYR

`NCCc1ccc(C(F)(F)F)cc1` [2-(4-(Trifluoromethyl)phenyl)ethylamine, reference compound]: the EC50 at HRP and on Hb was over 10000 nM throughout.
As for `NCCc1cc(O)c(O)cc1O` [6-OHDA, 6-hydroxydopamine, reference compound], the results for the “oROS-G H2O2 level” value in data set [1] (6-OHDA 10μM), in data set [1] (6-OHDA 30μM) and in data set [1] (6-OHDA 50μM) were 153.8±24.7, 211.9±18.2 and 271.2±14.8, respectively.
Consider `FC(F)(F)c1ccc(CCNc2ccccc2)cc1` [7b, N-(4-(trifluoromethyl)phenethyl)aniline], for which the EC50 at HRP (setting [2]) was over 10000 nM.
On to `Oc1ccc(NCCc2ccc(C(F)(F)F)cc2)cc1` [7c, 4-((4-(trifluoromethyl)phenethyl)amino)phenol], for which the results for the concentration for a half-maximal effect (EC50) on HRP (setting [2]) and on Hb (setting [3]) were over 10000 nM and 5090 nM, respectively.
In the same order, the values of `COc1ccc(NCCc2ccc(C(F)(F)F)cc2)cc1` [7d, 4-methoxy-N-(4-(trifluoromethyl)phenethyl)aniline] are 13300 nM and 23400 nM.
For `O=C(O)c1cccc(NCCc2ccc(C(F)(F)F)cc2)c1` [7e, 3-((4-(trifluoromethyl)phenethyl)amino)benzoic acid], the EC50 on HRP (setting [2]) and at Hb (setting [3]) was over 10000 nM in each case.
For the molecule `O=C(O)c1ccc(NCCc2ccc(C(F)(F)F)cc2)cc1` [7f, 4-((4-(trifluoromethyl)phenethyl)amino)benzoic acid], the results for the half-maximal effective concentration (EC50) at HRP (setting [2]) and on Hb (setting [3]) were 22100 nM and over 10000 nM, respectively.
In the case of `CNc1ccc(NCCc2cccc(OC)c2)cc1` [8d, N^1-(3-methoxyphenethyl)-N^4-methylbenzene-1,4-diamine hydrochloride salt], the EC50 on HRP (setting [2]) stood at 516 nM; on Hb (setting [3]) it was 85.5 nM.
In the same order, the values of `CNc1ccc(NCCc2ccc(OC)cc2)cc1` [8e, N^1-(4-methoxyphenethyl)-N^4-methylbenzene-1,4-diamine] are 790 nM and 69.5 nM.
For `CNc1ccc(NCCc2ccccc2)cc1` [8f, N^1-methyl-N^4-phenethylbenzene-1,4-diamine hydrochloride salt], the values for the EC50 on HRP (setting [2]) and on Hb (setting [3]) were 897 nM and 78.1 nM, respectively.
On to `CNc1ccc(NCCc2cccc(C(F)(F)F)c2)cc1` [8g, N^1-methyl-N^4-(3-(trifluoromethyl)phenethyl)benzene-1,4-diamine hydrochloride salt], for which the concentration giving a half-maximal response (EC50) at HRP (setting [2]) came to 378 nM; at Hb (setting [3]), 88.4 nM.
The like results for `CNc1ccc(NCCc2ccccc2C(F)(F)F)cc1` [8h, N^1-methyl-N^4-(2-(trifluoromethyl)phenethyl)benzene-1,4-diamine hydrochloride salt] were, in that order, 500 nM and 69.1 nM.
As for `Nc1ccc(O)c(C(=O)O)c1` [Mesalazine, reference compound], the 50% effective concentration (EC50) is 3600 nM at HRP (setting [2]) and 213 nM at Hb (setting [3]).
Take `CC(=O)[C@H]1CC[C@H]2[C@@H]3CCC4=CC(=O)CC[C@]4(C)[C@H]3CC[C@]12C` [Progesterone]: the “BCS code: CNS +/- classification” value in “PAMPA BBB permeability” is recorded as “+ (> 10)”. The Papp at 4 h, 50 μM in “PAMPA BBB permeability” (U.V, read-out: Pe (PAMPA BBB permeability)) is 42.2 ×10⁻⁶ cm/s; in the data set “PAMPA BBB permeability” (setting [4]), over 0.4 ×10⁻⁶ cm/s.
Take `CNC(=C[N+](=O)[O-])NCCSCc1ccc(CN(C)C)o1` [Ranitidine]: the “BCS code: CNS +/- classification” value in “PAMPA BBB permeability” is “- (< 10)”. For the same molecule, the Papp at 4 h, 50 μM in the data set “PAMPA BBB permeability” (setting [4]) is under 0.4 ×10⁻⁶ cm/s.
`O=C(O)c1ccccc1O` [Salicylic Acid, reference compound]: the EC50 on HRP (setting [2]) and at Hb (setting [3]) was over 10000 nM each time.
As for `Cc1ccc(O)c(C(=O)O)c1` [p-Cresotic acid, reference compound], the EC50 on HRP (setting [2]) and at Hb (setting [3]) was over 10000 nM in each case.

A word on the EC50: it is the concentration at which the effect is half-maximal.
